Results reported in DBAASP.
≈ marks a conversion by molar mass, not a printed value. Where “and” joins values, the source holds several entries; their conditions need not be identical. Equal values may be shown once. Blank lines part the entries; values can stand above or below the compound they belong to.

How the values were obtained:
Experiment in all cases: ≥ marks a high value that may be exact or a test limit, other limits are often not marked, values filed in µg/mL are converted to µM
[1] = tested on: Acinetobacter baumannii MTCC 9829
[2] = tested on: Alcaligenes faecalis MTCC 1937
[3] = tested on: Alkalihalobacillus alcalophilus MTCC 860
[4] = tested on: Bordetella bronchiseptica MTCC 6837
[5] = tested on: Citrobacter freundii MTCC 1658
[6] = tested on: Citrobacter koseri MTCC 1657
[7] = tested on: Corynebacterium glutamicum MTCC 2679
[8] = tested on: Enterococcus faecalis MTCC 439
[9] = tested on: Escherichia coli K12 MG1655
[10] = tested on: Haemophilus influenzae MTCC 621
[11] = tested on: Klebsiella aerogenes MTCC 111
[12] = tested on: Klebsiella oxytoca MTCC 2275
[13] = tested on: Klebsiella pneumoniae MTCC 7407
[14] = tested on: Pluralibacter gergoviae MTCC 3826
[15] = tested on: Proteus mirabilis MTCC 3158
[16] = tested on: Proteus vulgaris MTCC 1771
[17] = tested on: Pseudomonas aeruginosa MTCC 3542
[18] = tested on: Salmonella enterica MTCC 9844
[19] = tested on: Salmonella enterica subsp. enterica serovar Typhimurium ATCC 14028
[20] = tested on: Shigella boydii MTCC 11947
[21] = tested on: Shigella flexneri MTCC 1457
[22] = tested on: Staphylococcus aureus MTCC 3160
[23] = tested on: Staphylococcus haemolyticus MTCC 3383
[24] = tested on: Stenotrophomonas maltophilia MTCC 1890
[25] = tested on: Vibrio cholerae MTCC 3904
[26] = tested on: Escherichia coli ATCC 25922
[27] = tested on: Listeria monocytogenes KCTC 19111
[28] = tested on: Pseudomonas aeruginosa ATCC 15692
[29] = tested on: Salmonella typhimurium KCTC 1926
[30] = tested on: Staphylococcus aureus ATCC 25923
[31] = tested on: Staphylococcus epidermidis KCTC 1917
[32] = tested on: Bacillus subtilis MTCC 14416
[33] = tested on: Enterococcus faecalis ATCC 29212
Escherichia coli MG1655 = tested on: Escherichia coli MG1655
[34] = tested on: Pseudomonas aeruginosa ATCC 27853
[35] = tested on: Staphylococcus aureus ATCC 43300
[36] = tested on: Staphylococcus aureus MTCC 9542
Vibrio cholerae = tested on: Vibrio cholerae
Escherichia coli BW25113 = tested on: Escherichia coli BW25113
Escherichia coli J2210 = tested on: Escherichia coli J2210
Escherichia coli JJ2489 = tested on: Escherichia coli JJ2489
Escherichia coli JW0013 = tested on: Escherichia coli JW0013
[37] = tested on: Escherichia coli JW0368 ΔsbmA
[38] = tested on: Escherichia coli JW2778 ΔygdD
Escherichia coli MC1041 = tested on: Escherichia coli MC1041
Escherichia coli = tested on: Escherichia coli
[39] = tested on: Salmonella enterica serovar Tennessee
[40] = tested on: Salmonella enterica subsp. enterica serovar Enteritidis MH91989
[41] = tested on: Salmonella enterica subsp. enterica serovar Infantis
[42] = tested on: Salmonella enterica subsp. enterica serovar Newport
[43] = tested on: Salmonella typhimurium SL1344
Escherichia coli C25 = tested on: Escherichia coli C25

SMILES: CSCC[C@H](NC(=O)[C@H](CCCN=C(N)N)NC(=O)[C@H](Cc1cnc[nH]1)NC(=O)[C@H](Cc1c[nH]c2ccccc12)NC(=O)[C@H](CCCN=C(N)N)NC(=O)CNC(=O)[C@H](Cc1c[nH]c2ccccc12)NC(=O)[C@H](CCCN=C(N)N)NC(=O)[C@@H](N)CCCN=C(N)N)C(=O)N[C@@H](CCCN=C(N)N)C(=O)N[C@@H](CCCN=C(N)N)C(=O)N[C@@H](CCCN=C(N)N)C(=O)NCC(=O)N[C@@H](CCCN=C(N)N)C(=O)O [RRWGRWHRMRRRGR]
MIC [1]: ≥ 63.3 µM | MIC [2]: ≥ 63.3 µM | MIC [3]: 15.8 µM (≈ 32 µg/mL) | MIC [4]: ≥ 63.3 µM | MIC [5]: ≥ 63.3 µM | MIC [6]: 7.91 µM (≈ 16 µg/mL) | MIC [7]: 1.98 µM (≈ 4 µg/mL) | MIC [8]: ≥ 63.3 µM | MIC [9]: ≥ 63.3 µM | MIC [10]: ≥ 63.3 µM | MIC [11]: ≥ 63.3 µM | MIC [12]: 31.6 µM (≈ 64 µg/mL) | MIC [13]: ≥ 63.3 µM | MIC [14]: ≥ 63.3 µM | MIC [15]: ≥ 63.3 µM | MIC [16]: ≥ 63.3 µM | MIC [17]: ≥ 63.3 µM | MIC [18]: ≥ 63.3 µM | MIC [19]: > 63.3 µM | MIC [20]: 31.6 µM (≈ 64 µg/mL) | MIC [21]: 31.6 µM (≈ 64 µg/mL) | MIC [22]: ≥ 63.3 µM | MIC [23]: 1.98 µM (≈ 4 µg/mL) | MIC [24]: ≥ 63.3 µM | MIC [25]: ≥ 63.3 µM

SMILES: NCCCC[C@H](NC(=O)[C@H](Cc1ccc(O)cc1)NC(=O)[C@H](Cc1c[nH]c2ccccc12)NC(=O)[C@H](CCCCN)NC(=O)[C@H](CCCCN)NC(=O)[C@H](Cc1ccc(O)cc1)NC(=O)[C@H](Cc1c[nH]c2ccccc12)NC(=O)[C@@H](N)CCCCN)C(N)=O [KWYKKWYK]
MIC [26]: 4 µM (≈ 4.91 µg/mL) | MIC [27]: 8 µM (≈ 9.83 µg/mL) | MIC [28]: 8 µM (≈ 9.83 µg/mL) | MIC [29]: 8 µM (≈ 9.83 µg/mL) | MIC [30]: 64 µM (≈ 78.6 µg/mL) | MIC [31]: 8 µM (≈ 9.83 µg/mL)

SMILES: CC[C@H](C)[C@H](NC(=O)CNC(=O)[C@H](CCCN=C(N)N)NC(=O)[C@H](Cc1ccc(O)cc1)NC(=O)[C@@H](NC(=O)[C@H](CCCN=C(N)N)NC(=O)[C@H](Cc1ccccc1)NC(=O)[C@H](Cc1c[nH]c2ccccc12)NC(=O)[C@H](CCCCN)NC(=O)[C@@H](N)CCCCN)C(C)C)C(=O)N[C@@H](Cc1ccc(O)cc1)C(=O)N[C@@H](CCCN=C(N)N)C(=O)N[C@@H](CCCN=C(N)N)C(=O)N[C@@H](CCCN=C(N)N)C(N)=O [KKWFRVYRGIYRRR]
MIC (Escherichia coli C25): ≥ 63 µM | MIC [30]: 16 µM (≈ 31.7 µg/mL)

Second part, led by results:

MIC [32]: 21.5 µM (≈ 49.9 µg/mL) | MIC [33]: 21.5 µM (≈ 49.9 µg/mL) | MIC (Escherichia coli MG1655): ≥ 42.9 µM | MIC [34]: > 42.9 µM | MIC [35]: 10.7 µM (≈ 25 µg/mL) | MIC [36]: 5.37 µM (≈ 12.5 µg/mL)
SMILES: CC[C@H](C)[C@@H]1NC(=O)[C@H](CCCCN)NC(=O)[C@@H](NC(=O)[C@H](CC(C)C)NC(=O)[C@@H](NC(=O)[C@H](CCC(N)=O)NC(=O)[C@@H]2CCCN2C(=O)[C@H](CC(C)C)NC(=O)[C@H](Cc2ccccc2)NC(=O)[C@H](CC(N)=O)NC(=O)[C@H](C)NC(=O)[C@H](C)NC(=O)[C@H](CC(C)C)NC(=O)CNC(=O)[C@H](C)NC(=O)[C@@H](NC(=O)[C@@H](N)Cc2c[nH]c3ccccc23)[C@@H](C)CC)[C@@H](C)CC)CSSC[C@@H](C(N)=O)NC(=O)[C@H](CCCCN)NC(=O)[C@H](CCCN=C(N)N)NC(=O)[C@H](C)NC1=O [WIAGLAANFLPQILCKIARKC]
MIC (Vibrio cholerae): 10.7 µM (≈ 25 µg/mL)

MIC (Escherichia coli BW25113): 0.075 µM (≈ 0.175 µg/mL) | MIC (Escherichia coli J2210): 0.208 µM (≈ 0.484 µg/mL) | MIC (Escherichia coli JJ2489): 0.104 µM (≈ 0.242 µg/mL) | MIC (Escherichia coli JW0013): 0.075 µM (≈ 0.175 µg/mL) | MIC [37]: 0.834 µM (≈ 1.94 µg/mL) | MIC [38]: 0.208 µM (≈ 0.484 µg/mL) | MIC (Escherichia coli MC1041): 0.15 µM (≈ 0.349 µg/mL) | MIC (Escherichia coli): 0.197 µM and 0.3 µM | MIC [39]: 0.3 µM (≈ 0.698 µg/mL) | MIC [40]: 0.6 µM (≈ 1.4 µg/mL) | MIC [41]: 0.3 µM (≈ 0.698 µg/mL) | MIC [42]: 0.075 µM (≈ 0.175 µg/mL) | MIC [43]: 0.15 µM (≈ 0.349 µg/mL)
SMILES: CC[C@H](C)[C@H](NC(=O)[C@@H]1CCCN1C(=O)[C@H](CCCCN)NC(=O)[C@@H]1CCCN1C(=O)[C@@H]1CCCN1C(=O)[C@@H](NC(=O)[C@@H]1CCCN1C(=O)[C@H](CCCN=C(N)N)NC(=O)[C@@H]1CCCN1C(=O)[C@H](CCCCN)NC(=O)[C@H](Cc1ccc(O)cc1)NC(=O)[C@H](CO)NC(=O)CNC(=O)[C@H](CCCCN)NC(=O)[C@H](CC(=O)O)NC(=O)[C@@H](N)C(C)C)[C@@H](C)O)C(=O)N[C@@H](Cc1ccc(O)cc1)C(=O)N[C@@H](CC(N)=O)C(=O)N[C@@H](CCCN=C(N)N)C(=O)N[C@@H](CC(N)=O)C(=O)O [VDKGSYKPRPTPPKPIYNRN]
